This assay concerns murine neural precursor cells (neurosphere cultures). Nature of the assay: HTS of LOPAC library against secondary neurosphere cultures, MTT proliferation assay at 3 μM, day 7 (z score, P value). Format: cell-based, mouse. Background: Tetrazolium dyes change colour on reduction, which living cells bring about.
Setting [1] is: LOPAC library screen, 3 μM, MTT, secondary neurosphere cultures, day 7.
The mark [2] stands for this setting: primary LOPAC screen, 3 μM, MTT, neurosphere proliferation.
[3] abbreviates: yes/no: significantly inhibited neurosphere proliferation (P<0.01) in primary screen.
[4] abbreviates: LOPAC primary screen, neurosphere MTT proliferation, 3 μM, day 7.
Setting [5] is: yes = significantly inhibited neurosphere proliferation (P<0.01) in the primary screen.
The mark [6] stands for this setting: LOPAC library screen, 3 μM, MTT, neurosphere cultures.
Where [7] appears, read: yes/no: significantly inhibited neurosphere proliferation in the primary screen.
Where [8] appears, read: LOPAC screen, neurosphere MTT proliferation, 3 μM, day 7.
The mark [9] stands for this setting: LOPAC library screen at 3 μM, secondary neurosphere cultures, MTT.
The mark [10] stands for this setting: yes/no: significantly inhibited neurosphere proliferation in primary screen.
The mark [11] stands for this setting: yes/no: significantly inhibited neurosphere proliferation (P<0.01) in the primary screen.

Like-named read-outs stand apart in the source and are kept apart here.

`O=C1C=CC(=O)C=C1` [p-Benzoquinone]: the Activity entry is given as “no”. The “Z Score” value under setting [1] is −1.571. Under setting [2], this molecule returned a Z score of −1.571.
Take `N[C@@H](Cc1ccc(F)cc1)C(=O)O` [p-Fluoro-L-phenylalanine]: for the setting “168 h, 3 µM”, the “Z Score” value is reported as −0.7023 and the Z score is listed as −0.702. In addition, the Activity entry under setting [3] is on record as “no”.
Consider `Cl.Clc1cc(I)cc(Cl)c1NC1=NCCN1` [p-Iodoclonidine hydrochloride], for which the “Z Score” value was −0.1606. The Z score under setting [4] is on record as −0.161. Moreover, the Activity entry under setting [3] is “no”.
As for `COc1ccccc1N1CCN(CCN(C(=O)c2ccc(F)cc2)c2ccccn2)CC1.Cl.Cl` [p-MPPF dihydrochloride], the “Z Score” value is −2.16.
For `COc1ccccc1N1CCN(CCN(C(=O)c2ccc(F)cc2)c2ccccn2)CC1.Cl.Cl` [p-MPPF dihyrochloride], the Z score under setting [4] is on record as −2.160. The Activity entry under setting [5] is “no”.
As for `COc1ccccc1N1CCN(CCN(C(=O)c2ccc(I)cc2)c2ccccn2)CC1.Cl` [p-MPPI hydrochloride], the “Z Score” value came out at 0.2606. The molecule further registered a Z score under setting [4] of 0.261. Also, the Activity result under setting [5] is “no”.
Turning to `NC1(C(=O)O)CCC(C(=O)O)C1` (stereo not drawn) [trans-(B1)-ACPD], the “Z Score” value was 0.3149.
For the molecule (+)-Catechin Hydrate, the “Z Score” value under setting [6] was found to be 0.5105. Moreover, under setting [2], the Z score amounted to 0.511. Moreover, the Activity entry under setting [7] was “no”.
For (+)-Cyclazocine, the “Z Score” value is listed as 0.6116. This molecule also returned a Z score under setting [8] of 0.612. Further, the Activity entry under setting [3] is “no”.
As to (+)-Nicotine (+)-di-p-toluoyl tartrate, the Activity entry is recorded as “no”, the “Z Score” value is −2.233 and the Z score was −2.233.
In the case of (S)-(−)-propafenone hydrochloride, the “Z Score” value under setting [9] was −0.7524. Besides, under setting [4], the Z score was −0.752. Under setting [10], the Activity entry is on record as “no”.
In the case of (S)-Propranolol hydrochloride, the “Z Score” value under setting [9] is −0.5346. This molecule also had a Z score under setting [4] of −0.535. The Activity entry under setting [10] was “no”.
Molecule (±)-Atenolol gave a Z score under setting [2] of −0.658. Besides, under setting [7], the Activity entry was “no”.
As for (±)-Pindobind, the Z score under setting [4] amounted to 0.257. Besides, under setting [10], the Activity entry was “no”.
As to (−)-Bicuculline methbromide, 1(S), 9(R), the Activity entry is reported as “no” and the “Z Score” value is on record as −1.842. In addition, the Z score under setting [4] is −1.842.
Regarding (−)-Cotinine, the “Z Score” value under setting [9] is given as −0.5099. Besides, the Z score under setting [8] was −0.510. The Activity entry under setting [3] is reported as “no”.
Consider (−)-Eseroline fumarate, for which the “Z Score” value came out at 0.6339. The molecule further yielded a Z score under setting [4] of 0.634. Moreover, under setting [3], the Activity result is “no”.
(−)-MK-801 hydrogen maleate: the “Z Score” value came to 1.133. Under setting [4], this molecule gave a Z score of 1.133. For the same molecule, under setting [5], the Activity result is listed as “no”.
(−)-Naproxen sodium: the “Z Score” value under setting [6] stood at 0.6024. Further, under setting [4], the Z score was 0.602. In addition, the Activity entry under setting [5] is recorded as “no”.
Regarding (−)-Perillic acid, the “Z Score” value is given as −1.321.
For (−)-Quinpirole hydrochloride, the “Z Score” value is recorded as −1.565 and the Z score is recorded as −1.565.
Turning to (−)-Scopolamine methyl nitrate, the Activity entry under setting [10] is recorded as “no”.
On to (−)-Tetramisole hydrochloride, for which the “Z Score” value under setting [1] is listed as −1.866.
Take (−)Amethopterin: under setting [1], the “Z Score” value is on record as −8.704. The molecule further returned a Z score under setting [4] of −8.704. Also, the Activity entry under setting [11] is given as “yes”.
As for Albuterol hemisulfate, the “Z Score” value under setting [9] is on record as −0.949. Under setting [4], this molecule had a Z score of −0.949. Moreover, under setting [10], the Activity entry is listed as “no”.
Consider CGP 20712A methanesulfonate, for which the “Z Score” value under setting [6] was determined as 0.6491. Besides, under setting [8], the Z score was 0.649. Besides, the Activity result under setting [3] is listed as “no”.
With Ceramide, the “Z Score” value is given as −0.8267. Under setting [2], this molecule displayed a Z score of −0.827. Also, the Activity entry under setting [7] is recorded as “no”.
As to Dextrorphan D-tartrate, the Activity entry is listed as “no”, the “Z Score” value is 1.569 and the Z score is listed as 1.569.
As for Dihydroergocristine methanesulfonate, the “Z Score” value is given as −0.773. The molecule also yielded a Z score under setting [8] of −0.773. Also, the Activity result under setting [3] is reported as “no”.
With Foliosidine, the “Z Score” value is given as −0.0969. Further, the Z score under setting [4] was −0.097. Besides, the Activity entry under setting [3] is “no”.
On to “Histamine, R(−)-alpha-methyl-, dihydrochloride”, for which, under setting [1], the “Z Score” value is −1.469. Under setting [4], this molecule registered a Z score of −1.469. Under setting [3], the Activity entry is reported as “no”.
Regarding Hydroxytacrine maleate, the “Z Score” value is −0.2043. Further, the Z score under setting [4] is −0.204. In addition, the Activity result under setting [3] is recorded as “no”.
Iproniazid phosphate: the “Z Score” value under setting [9] is reported as −0.2492. The Z score under setting [4] is recorded as −0.249. Besides, the Activity entry under setting [3] is listed as “no”.
On to JL-18, for which the “Z Score” value is recorded as −0.2861. This molecule also gave a Z score under setting [4] of −0.286. The Activity entry under setting [3] is given as “no”.
With L(−)-Norepinephrine bitartrate, the “Z Score” value under setting [1] was −1.418. The molecule also displayed a Z score under setting [2] of −1.418. Also, under setting [7], the Activity entry was “no”.
Turning to L-Hyoscyamine, the Activity result is reported as “no”, the “Z Score” value is recorded as −0.661 and the Z score is −0.661.
As to L-Methionine sulfoximine, the Activity entry is recorded as “no”, the “Z Score” value turned out to be 0.08671 and the Z score stood at 0.087.
On to LY-310,762 hydrochloride, for which the “Z Score” value stood at 0.05111. The same molecule showed a Z score under setting [4] of 0.051. Under setting [11], the Activity result is listed as “no”.
LY-367,265: the “Z Score” value is listed as −0.407. The molecule further displayed a Z score under setting [4] of −0.407. Moreover, under setting [3], the Activity entry is “no”.
Turning to MDL 26,630 trihydrochloride, the “Z Score” value is listed as 0.3274. Under setting [4], this molecule returned a Z score of 0.327. Besides, the Activity entry under setting [5] is “no”.
Metaproterenol hemisulfate: the “Z Score” value under setting [9] is recorded as −1.022. In addition, the Z score under setting [4] is reported as −1.022. Besides, the Activity entry under setting [5] is listed as “no”.
With NCS-356, the “Z Score” value is 2.833. Also, the Z score under setting [4] was determined as 2.833. Further, the Activity entry under setting [5] is “no”.
Turning to NS 521 oxalate, the “Z Score” value is listed as −11.27.
Regarding NSC 95397, the “Z Score” value is reported as −1.098. In addition, the Z score under setting [4] is reported as −1.098. In addition, the Activity result under setting [11] is on record as “no”.
“O-(Carboxymethyl)hydroxylamine hemihydrochloride”: the “Z Score” value is −2.058. Under setting [2], this molecule came in with a Z score of −2.058. Moreover, under setting [7], the Activity result is given as “no”.
Oxotremorine sesquifumarate salt: the “Z Score” value amounted to 0.8552. The molecule also displayed a Z score under setting [4] of 0.855. Also, under setting [10], the Activity entry is listed as “no”.
Regarding “Phenylbenzene-omega-phosphono-alpha-amino acid”, the “Z Score” value was −0.01423. Further, the Z score under setting [4] is −0.014. Besides, the Activity result under setting [10] was “no”.
The matching figures for Picrotoxin: 0.7771, 0.777 and “no”.
Take Piribedil maleate: under setting [9], the “Z Score” value was −0.3345. For the same molecule, under setting [4], the Z score is on record as −0.334. The Activity entry under setting [11] is on record as “no”.
With Quipazine dimaleate, the “Z Score” value was −1.444. For the same molecule, the Z score under setting [4] is reported as −1.444. For the same molecule, under setting [10], the Activity result was “no”.
Take “R(−)-2,10,11-Trihydroxy-N-propylnoraporphine hydrobromide”: the “Z Score” value was −2.744.
Turning to “R(−)-2,10,11-Trihydroxyaporphine hybrobromide”, the “Z Score” value is given as −3.309.
Turning to R(−)-Apocodeine hydrochloride, the “Z Score” value is −9.865. The molecule further had a Z score under setting [4] of −9.865. Moreover, the Activity result under setting [11] is “yes”.
For R(−)-Denopamine, the “Z Score” value under setting [1] is listed as −4.486. The molecule also returned a Z score under setting [4] of −4.486. In addition, the Activity entry under setting [11] is recorded as “yes”.
On to R(−)-Isoproterenol (+)-bitartrate, for which the “Z Score” value under setting [1] was −1.485. Also, the Z score under setting [4] was −1.485. In addition, under setting [3], the Activity entry is recorded as “no”.
For the molecule R(−)-Me5, the “Z Score” value is recorded as −1.414. Also, the Z score under setting [4] is on record as −1.414. Moreover, under setting [5], the Activity result is listed as “no”.
Take R(−)-N6-(2-Phenylisopropyl)adenosine: under setting [1], the “Z Score” value was −2.023. This molecule registered a Z score under setting [4] of −2.023. In addition, under setting [10], the Activity result is “no”.
R(−)-N-Allylnorapomorphine hydrobromide: the “Z Score” value was −7.839. The Z score under setting [4] was −7.839. In addition, the Activity result under setting [11] is on record as “yes”.
Take R-(−)-Desmethyldeprenyl hydrochloride: the “Z Score” value is listed as −0.5056. Moreover, the Z score under setting [8] is on record as −0.506. The Activity result under setting [3] is “no”.
On to R-(−)-Fluoxetine hydrochloride, for which the Activity entry was “no”. Also, under setting [9], the “Z Score” value is −0.1281.
Turning to S(−)-Atenolol, the “Z Score” value under setting [6] came out at 0.617. For the same molecule, the Z score under setting [2] is 0.617. For the same molecule, under setting [7], the Activity result is listed as “no”.
For the molecule S(−)-Timolol maleate, the “Z Score” value under setting [9] was −0.7675. Moreover, the Z score under setting [4] is on record as −0.767. For the same molecule, the Activity result under setting [10] was “no”.

Values taken from patent US8058243B2, “Method for treating a brain cancer with ifenprodil” (HSC Research and Development Limited Partnership, priority 2006, dated 2011).
